{
  "source": "paper PMC10302633",
  "about": "(Marine Drugs, 2023)",
  "key": {"human α7 nAChRs": {"target": "human α7 nAChRs (Homo sapiens, UniProt P36544)", "sequence (P36544 23-502 limits assumed)": "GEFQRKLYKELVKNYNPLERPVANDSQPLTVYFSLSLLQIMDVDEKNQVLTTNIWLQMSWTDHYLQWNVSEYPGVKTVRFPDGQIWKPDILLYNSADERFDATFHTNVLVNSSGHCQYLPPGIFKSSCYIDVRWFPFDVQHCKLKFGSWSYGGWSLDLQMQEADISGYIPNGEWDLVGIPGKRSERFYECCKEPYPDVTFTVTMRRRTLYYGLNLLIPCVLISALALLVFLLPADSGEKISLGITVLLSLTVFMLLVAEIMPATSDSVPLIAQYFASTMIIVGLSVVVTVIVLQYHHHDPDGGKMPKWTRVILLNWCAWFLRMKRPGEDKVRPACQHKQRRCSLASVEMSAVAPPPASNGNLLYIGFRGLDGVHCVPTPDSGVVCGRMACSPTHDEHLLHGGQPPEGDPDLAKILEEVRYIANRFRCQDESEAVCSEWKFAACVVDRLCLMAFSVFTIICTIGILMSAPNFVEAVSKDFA", "test": "cell-based"}, "human α9α10 nAChRs": {"target": "human α9α10 nAChRs (Homo sapiens, UniProt Q9GZZ6+Q9UGM1)", "sequence (Q9UGM1 26-479 limits assumed)": "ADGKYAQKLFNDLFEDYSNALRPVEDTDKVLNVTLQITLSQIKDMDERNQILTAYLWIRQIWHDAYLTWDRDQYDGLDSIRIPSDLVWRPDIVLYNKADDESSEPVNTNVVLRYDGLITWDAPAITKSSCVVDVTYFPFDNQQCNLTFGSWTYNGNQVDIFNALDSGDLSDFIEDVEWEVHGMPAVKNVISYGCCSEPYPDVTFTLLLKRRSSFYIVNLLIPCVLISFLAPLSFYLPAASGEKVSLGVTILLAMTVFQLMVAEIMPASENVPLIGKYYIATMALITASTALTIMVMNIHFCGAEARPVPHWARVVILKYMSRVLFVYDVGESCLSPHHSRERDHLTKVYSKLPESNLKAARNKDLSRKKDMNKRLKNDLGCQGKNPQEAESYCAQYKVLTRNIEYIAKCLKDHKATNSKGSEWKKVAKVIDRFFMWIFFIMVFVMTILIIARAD", "sequence (Q9GZZ6 25-450 limits assumed)": "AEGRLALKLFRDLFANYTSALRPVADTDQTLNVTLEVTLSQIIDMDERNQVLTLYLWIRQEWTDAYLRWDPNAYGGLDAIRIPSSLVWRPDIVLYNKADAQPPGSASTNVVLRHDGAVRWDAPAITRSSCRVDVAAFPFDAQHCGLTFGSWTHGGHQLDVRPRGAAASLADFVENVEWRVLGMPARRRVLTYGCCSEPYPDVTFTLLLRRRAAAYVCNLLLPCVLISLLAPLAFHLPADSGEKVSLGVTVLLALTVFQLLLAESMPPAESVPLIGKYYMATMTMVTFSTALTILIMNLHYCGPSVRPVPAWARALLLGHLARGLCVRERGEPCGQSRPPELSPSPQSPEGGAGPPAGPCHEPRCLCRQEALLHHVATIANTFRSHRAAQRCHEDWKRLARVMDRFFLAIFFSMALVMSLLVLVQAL", "type": "cell-based"}, "rat α7 nAChRs": {"target": "rat α7 nAChRs (Rattus norvegicus, UniProt Q05941)", "sequence (Q05941 23-502 limits assumed)": "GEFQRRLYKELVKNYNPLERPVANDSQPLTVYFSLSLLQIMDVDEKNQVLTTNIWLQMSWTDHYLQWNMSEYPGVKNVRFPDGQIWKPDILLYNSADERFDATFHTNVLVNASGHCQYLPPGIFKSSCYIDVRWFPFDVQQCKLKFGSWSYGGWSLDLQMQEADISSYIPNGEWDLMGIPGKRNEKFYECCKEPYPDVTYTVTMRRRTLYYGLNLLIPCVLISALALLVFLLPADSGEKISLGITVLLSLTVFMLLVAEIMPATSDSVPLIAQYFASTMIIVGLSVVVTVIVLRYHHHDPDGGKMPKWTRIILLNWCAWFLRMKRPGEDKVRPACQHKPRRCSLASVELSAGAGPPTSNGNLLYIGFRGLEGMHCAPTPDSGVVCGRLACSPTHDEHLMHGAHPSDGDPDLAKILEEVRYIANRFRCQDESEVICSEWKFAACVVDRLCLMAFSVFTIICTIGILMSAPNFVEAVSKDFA", "test": "cell-based", "type": "cell-based"}, "rat α9α10 nAChRs": {"target": "rat α9α10 nAChRs (Rattus norvegicus, UniProt P43144+Q9JLB5)", "sequence (P43144 26-479 limits assumed)": "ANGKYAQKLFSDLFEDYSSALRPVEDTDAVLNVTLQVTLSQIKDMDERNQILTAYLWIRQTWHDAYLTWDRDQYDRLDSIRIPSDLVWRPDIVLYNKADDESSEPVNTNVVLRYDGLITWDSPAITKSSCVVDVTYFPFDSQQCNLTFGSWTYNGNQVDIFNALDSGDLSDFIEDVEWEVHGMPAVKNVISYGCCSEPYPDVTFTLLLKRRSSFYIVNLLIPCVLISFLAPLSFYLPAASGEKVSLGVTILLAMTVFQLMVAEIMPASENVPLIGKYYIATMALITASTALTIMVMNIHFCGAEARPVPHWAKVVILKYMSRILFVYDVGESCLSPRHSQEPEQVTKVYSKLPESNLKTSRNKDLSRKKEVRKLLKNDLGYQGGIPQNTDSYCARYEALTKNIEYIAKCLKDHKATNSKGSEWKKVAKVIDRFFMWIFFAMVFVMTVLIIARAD", "sequence (Q9JLB5 25-447 limits assumed)": "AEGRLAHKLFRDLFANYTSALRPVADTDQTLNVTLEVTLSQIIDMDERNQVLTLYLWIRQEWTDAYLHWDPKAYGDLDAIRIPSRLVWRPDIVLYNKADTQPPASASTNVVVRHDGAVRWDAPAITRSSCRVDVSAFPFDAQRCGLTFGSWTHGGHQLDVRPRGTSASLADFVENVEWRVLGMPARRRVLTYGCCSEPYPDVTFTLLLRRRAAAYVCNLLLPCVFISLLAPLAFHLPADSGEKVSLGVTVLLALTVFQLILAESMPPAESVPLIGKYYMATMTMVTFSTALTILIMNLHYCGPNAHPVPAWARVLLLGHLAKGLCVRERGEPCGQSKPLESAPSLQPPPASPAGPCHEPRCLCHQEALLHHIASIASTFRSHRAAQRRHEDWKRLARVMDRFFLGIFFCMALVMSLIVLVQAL", "type": "cell-based"}},
  "data": [
    {"smiles": "N=C(N)NCCC[C@H](NC(=O)[C@@H]1CSSC[C@@H]2NC(=O)[C@@H](NC(=O)CN)CSSC[C@H](NC(=O)[C@H](CCCNC(=N)N)NC(=O)[C@@H]3CCCN3C(=O)[C@H](CC(=O)O)NC(=O)[C@H](CO)NC2=O)C(=O)N[C@@H](CCCNC(=N)N)C(=O)N[C@@H](Cc2ccc(O)cc2)C(=O)N[C@@H](CCCNC(=N)N)C(=O)N1)C(=O)O", "note": "[RgIA]", "values": [
      {"measurement": "Hill Slope", "setting": "human α7 nAChRs", "result": "0.7 (0.4–1.0)"},
      {"measurement": "IC50", "setting": "human α7 nAChRs", "result": 4.61, "unit": "µM"},
      {"measurement": "Hill Slope", "setting": "human α9α10 nAChRs", "result": "0.5 (0.4–0.6)"},
      {"measurement": "Hill Slope", "setting": "rat α7 nAChRs", "result": "0.8 (0.4–1.1)"},
      {"measurement": "IC50", "setting": "rat α7 nAChRs", "result": 5.31, "unit": "µM"},
      {"measurement": "inhibition of ACh-evoked currents", "setting": "rat α7 nAChRs", "result": 60, "unit": "%"},
      {"measurement": "Hill Slope", "setting": "rat α9α10 nAChRs", "result": "0.8 (0.7–0.9)"}
    ]}
  ]
}
